# In article PMC12265377, “CC48 a new CB2R agonist/FAAH inhibitor dual drug blocks gastric cancer progression and overcomes paclitaxel resistance” (Journal of Experimental & Clinical Cancer Research : CR, 2025):
# How the values were obtained:
# HGC27-R cells [1] = assay: Migration (scratch) assay; type: cell-based, human; conditions: scratch assay 24 h, highest concentration
# Method: (§1) HGC27-S/R and AGS cells were grown until confluence. A scratch wound was generated with a pipette tip. […] Photographs were taken of each well immediately (T0) and at various times, T1 (9 h), T2 (24 h), and T3 (48 h), using a Leica DMRXA camera (Leica Microsystems, Milan, Italy). The images were analyzed using ImageJ Software (http://rsb.info.nih.gov/ij/). The distance that cells migrated through the scratch area was determined by measuring the wound width at T1, T2 and T3 and subtracting it from the wound width at the start (T0). The relative migration rate was calculated by setting the percentage of migration of the control cells at time T2 equal to 1 and comparing the percentage of migration of the cells after each drug treatment to this value. The results are representative of three independent experiments.
# AGS cells = assay: Migration (scratch) assay; type: cell-based, human; conditions: scratch assay 24 h, 6 µM AM630, 10 µM others
# Method: as §1
# HGC27-S cells [2] = assay: Migration (scratch) assay; type: cell-based, human; conditions: scratch assay 24 h, 6 µM AM630, 10 µM others
# Method: as §1
# [3] = tested on: HGC27-S/R and AGS cell lines; assay: VEGFA in cell culture medium (ELISA), all lines; type: cell-based, human; conditions: all the cell lines investigated, 48 h
# Method: (§2) The amount of VEGFA secreted in the culture medium by HGC27-S/R and AGS treated cells was measured using a highly sensitive Enzyme-Linked Immunosorbent Assay (ELISA), Quantikine Kit ELISA (R&D Systems, Minneapolis, MN, USA), according to the manufacturer’s instructions. The measured values were normalized to the number of cells.
# HGC27-R cells [4] = assay: ROS determination assay (DCF-DA); type: cell-based, human; conditions: 1 µM, 48 h, vs untreated cells
# Method: (§3) For ROS analysis the procedure described in [26] was adapted. […] After the incubation, all the samples were incubated for 30 minutes at 37°C in the dark with 50 µM 2’,7’-dichlorofluorescein diacetate, DCF-DA.
# (§4) Cells were then washed, detached with trypsin/EDTA solution, centrifuged at 12,000 g for 10 min and re-suspended in1mL PBS. At least 10.000 total events were acquired using an Attune Nxt Acoustic Focusing Cytometer (Life Technologies Corporation) equipped with a blue laser (488 nm). Analysis was performed and data were visualized using Attune™ NxT v2.6 Software. The percentage of green fluorescent cells and the green fluorescence median were measured on a mono-parametric histogram based on DCF-DA fluorescence.
# HGC27-S cells [5] = assay: ROS determination assay (DCF-DA); type: cell-based, human; conditions: 1 µM, 48 h, vs untreated cells
# Method: as §3, §4
# FAAH Human recombinant = target: T1, FAAH Human recombinant (Homo sapiens, UniProt O00519); assay: FAAH inhibition assay; type: biochemical; conditions: ± SEM, substrate AMC-AA 1 µM
# T1 construct: purchased Cayman Chemical
# T1 sequence (O00519 1-579): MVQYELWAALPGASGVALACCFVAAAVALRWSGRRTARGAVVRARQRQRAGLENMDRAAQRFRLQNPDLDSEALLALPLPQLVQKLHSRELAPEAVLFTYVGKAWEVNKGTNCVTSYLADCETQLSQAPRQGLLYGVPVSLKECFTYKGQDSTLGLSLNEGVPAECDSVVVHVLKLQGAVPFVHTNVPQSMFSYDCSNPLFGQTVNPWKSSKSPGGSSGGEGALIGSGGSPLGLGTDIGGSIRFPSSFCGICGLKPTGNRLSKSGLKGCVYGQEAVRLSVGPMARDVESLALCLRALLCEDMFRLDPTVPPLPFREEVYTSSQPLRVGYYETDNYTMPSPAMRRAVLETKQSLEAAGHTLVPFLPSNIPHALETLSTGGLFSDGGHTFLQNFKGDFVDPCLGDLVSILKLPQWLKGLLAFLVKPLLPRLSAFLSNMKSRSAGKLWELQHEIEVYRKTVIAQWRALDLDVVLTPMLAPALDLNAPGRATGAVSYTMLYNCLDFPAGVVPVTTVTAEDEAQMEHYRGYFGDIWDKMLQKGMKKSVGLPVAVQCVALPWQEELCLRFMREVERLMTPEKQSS
# Method: Assays were performed using 96-well black flat-bottom microtiter NBS plates (COSTAR flat black). […] The substrate (7-amino-4-methyl-2 H-1-benzopyran-2-one-5Z,8Z,11Z,14Z-eicosatetraen-amide, AMC-AA, 1µM final concentration) was then added, and the assay was incubated for 2 h at 37 °C in a TECAN infinite M1000Pro plate reader (Tecan, Männedorf, Switzerland) which measured the fluorescence from each well every 30 s (λex = 340 nm, λem = 450 nm), determining FAAH activity as relative fluorescence units (RFU). Control wells lacking the inhibitor and blank wells lacking both inhibitor and enzyme were used to calculate the percent inhibition for each tested compound. IC50 values were calculated via GraphPad Prism 5.0 (GraphPad Software, La Jolla, CA, USA) and are reported as mean ± SEM of at least three independent measurements performed in triplicate.
# NCI-N87_LUC cell line = assay: Ki67 immunohistochemistry of tumor explants; type: in vivo, CD1-nude female mice; conditions: GP2/GP3 (10 and 20 mg/kg); vehicle 35%
# Method: Tissue blocks fixed in formalin and embedded in paraffin were obtained from the explants of the tumor masses of each specimen. Sections stained with hematoxylin and eosin (H&E) were reviewed by a pathologist to confirm the adequacy of the sample, and to evaluate the morphologic and/or pathological characteristics of each sample. […] IHC analysis was carried out in sections after deparaffinization for 30 min and then rehydration in grades of alcohol. Antigen retrieval was performed at 90 °C for 20 min with Tris-borate-EDTA Buffer. To assess the Ki67, IHC was again carried out on all cases on paraffin-embedded sections using an anti-Ki67 Ab diluted 1:100 (Mib-1; DAKO) following the manufacturer’s instructions.
# CB1R = tested on: CB1R; set-up: method as in PMID 36657299; conditions: cited from earlier work
# HGC27-S cells [6] = assay: VEGFA in cell culture medium (ELISA); type: cell-based, human; conditions: 10 µM, 48 h, untreated 3.82
# Method: as §2
SMILES,relative migration rate (control cells = 1) (HGC27-R cells [1]),relative migration rate (untreated cells = 1) (AGS cells),relative migration rate (untreated cells = 1) (HGC27-S cells [2]),VEGFA secretion in culture medium (in words) [3],ROS production (HGC27-R cells [4]),intracellular ROS production (HGC27-S cells [5]),FAAHi IC50 (FAAH Human recombinant),IC50 (FAAH Human recombinant; read-out: FAAHi IC50) [µM],percentage of Ki67-stained nuclei in tumor (NCI-N87_LUC cell line),EC50 (CB1R) [µM],VEGFA secretion in culture medium (HGC27-S cells [6]) [pg/mL/cell]
"COc1ccc(C(=O)c2c(C)n(CCN3CCOCC3)c3cc(I)ccc23)cc1 [AM630, reference compound]",0.2,0.7,0.6,increase in VEGFA secretion,induced an increase in ROS production,significant increase in intracellular ROS production,low FAAH inhibition activity,20 ± 2.8,–,–,–
CCCCCNc1ccccc1C(=O)NC12CC3CC(CC(C3)C1)C2 [ASF151],–,–,–,–,induced an increase in ROS production,–,–,–,–,–,–
O=C(NC12CC3CC(CC(C3)C1)C2)c1ccccc1OCc1ccccc1 [CC48],0.76,0.8,0.6,–,–,significant increase in intracellular ROS production,–,–,15–20%,0.489,2.6
